From patent US8815811B2, “Peptides and methods for their preparation and use” (Eli Lilly and Company, priority 2010, dated 2014) come the findings set out here.

Where no end group is shown, it is not given here. [ ]: non-standard residue; d: D form. 1Nal = N[C@@H](Cc1cccc2ccccc12)C(=O)O; Aib = CC(C)(N)C(=O)O

One assay has as its target T1, hGlucR (Homo sapiens, UniProt P47871).
T1 construct: expressed in transfected cells; host or cells: 293HEK, Hygromycin-selected, phD expression plasmid
Briefly: Glucagon receptor (hGlucR) binding assay (SPA, I-125 glucagon). The conditions noted are these: hGlucR 293HEK membranes. As for the experimental part:
The hGlucR cDNA is subcloned into the expression plasmid phD (Trans-activated expression of fully gamma-carboxylated recombinant human protein C, an antithrombotic factor. Grinnell, B. W., et. al., Bio/Technology 5: 1189-1192 (1987)). This plasmid DNA is transfected into 293HEK cells and selected with 200 μg/mL Hygromycin.
Crude plasma membranes are prepared using cells from suspension culture. The cells are lysed on ice in hypotonic buffer containing 25 mM Tris HCl, pH 7.5, 1 mM MgCl2, DNAse1, 20 μ/mL, and Roche Complete™ Inhibitors without EDTA. The cell suspension is homogenized with a glass dounce homogenizer using a Teflon® pestle for 25 strokes. The homogenate is centrifuged at 4° C. at 1800×g for 15 minutes. The supernatant is collected and the pellet is resuspended in hypotonic buffer and rehomogenized. The mixture is centrifuged at 1800×g for 15 minutes. The second supernatant is combined with the first supernatant. […]
The binding buffer contains 25 mM 4-(2-hydroxyethyl)-1-piperazineethanesulfonic acid (HEPES), pH 7.4, 2.5 mM CaCl2, 1 mM MgCl2, 0.1% fatty acid free BSA, 0.003% Tween20, and Roche Complete™ Inhibitors without EDTA. […] Plates are read with a PerkinElmer Life and Analytical Sciences Trilux MicroBeta® scintillation counter after 12 hours of settling time at room temperature.
Results are calculated as a percent of specific I-125-glucagon binding in the presence of compound. […]

The subject of assay [1] is diet-induced obese Long Evans rats. Briefly: Effects on food intake, body weight, body composition and plasma lipids in DIO Long Evans rats. The assay is classed as in vivo. As for the experimental part:
Four to five months old male diet-induced obese Long Evans rats are used. Animals are individually housed in a temperature-controlled (24° C.) facility with a 12 hour light/dark cycle (lights on 22:00), and have free access to food (diet TD95217) and water. Animals are acclimated to the facility for at least 2 weeks. On day 0, body composition is determined by QNMR and rats are randomized to respective groups (n=6/group) based on body weight, % fat, and % lean mass. Compound is administered by subcutaneous injection on days 1, 4, 8, 11, and 15. […] After CO2 euthanasia, blood samples are taken by cardiac stick for analysis of exposure determination.

In a further assay the test system is Normal male Wistar rats. Briefly: Intravenous glucose tolerance test in normal rats. The assay is classed as in vivo. The following applies: IVGTT; for insulin AUC: 0 to 30 min. The procedure: Effects on Blood Glucose Excursion During an Intravenous Glucose Tolerance Test in Normal Rats
Normal male Wistar rats (225-250 g) are used in the study. Animals are randomized into groups based on fed body weight and blood glucose. Animals are injected with vehicle or peptide analog (dose 3-400 μg peptide content/kg) 16 hours prior to the start of the test. Food is removed at the time of injection. Prior to the assay the animals are put under anesthesia, Phenobarbital 65 mg/kg i.p., and two catheters are inserted, one in the jugular vein and the other in the carotid artery. At time 0, animals are given 0.5 g glucose/kg through the venous catheter. Blood is collected from the carotid artery at time 0 (pre glucose), 2, 4, 6, 10, 20 and 30 minutes after glucose challenge. Glucose concentration is measured by glucometer. Insulin is measured by Mesoscale®. Efficacy is measured as the increase in total area under the insulin curve (=integrated plasma insulin values from t+0 to 30 min) as well as the area under the glucose curve which is a measure of the glucose excursion following the intravenous glucose challenge.

Assay [2] concerns diet-induced obese (DIO) mice. Briefly: Effects on food intake, body weight and body composition in DIO mice. The assay is classed as in vivo. The following applies: for Fat mass loss (g fat weight change for 14 days) / Total food intake (g total for 14 days) / Overall weight loss (g weight change for 14 days): DIO mice. The procedure:
Effects on Food Intake, Body Weight and Body Composition in Diet-Induced Obese (DIO) Mice
Three to four months old male diet-induced obese (DIO) mice are used. Animals are individually housed in a temperature-controlled (24° C.) facility with a 12 hour light/dark cycle (lights on 22:00), and have free access to food and water. After 2 weeks acclimation to the facility, mice are randomized to treatment groups (n=8-10/group) so that each group has similar mean body weight and fat mass. Before the experiment, mice are subcutaneously (sc) injected with vehicle solution and weighed for 7 days to acclimate them to the procedures.
Vehicle or peptide analog (dose range 10-100 nmol/Kg) dissolved in vehicle is administered by sc injection to ad libitum fed DIO mice 30-90 minutes prior to the onset of the dark cycle […] for 2 to 4 weeks. Body weight and the weight of food plus the hopper are measured at the same time. Food consumed in the last 24 hours is calculated by subtracting current weight of food plus the hopper from that of the previous day. Absolute changes in body weight are calculated by subtracting the body weight of the animal prior to the first injection. On days −1 and 14, total fat mass is measured by nuclear magnetic resonance (NMR) using an Echo Medical System (Houston, Tex.) instrument. Fat free mass is calculated by subtracting fat mass from total body weight.

The test system of the next assay is DIO mice. Briefly: Oral glucose tolerance test after 2-week treatment in DIO mice. The conditions noted are these: for Glucose AUC, MEAN: OGTT. The assay is classed as in vivo. The procedure: Fifty-six hours after the last injection of compound in the DIO study above the animals were subjected to an oral glucose tolerance test. In short, mice were fasted for 16 hours prior to the start of the glucose tolerance test. At time 0, animals are given 2 g/kg dextrose by oral gavage. Blood is collected by tail bleeding taken 0, 15, 30, 60 and 120 minutes after glucose challenge. Glucose concentration is measured by glucometer.

The Ki is a measure of affinity in units of concentration, obtained from inhibition or displacement. Read a low Ki as a stronger hold on the target.

T1 sequence (P47871 26-477): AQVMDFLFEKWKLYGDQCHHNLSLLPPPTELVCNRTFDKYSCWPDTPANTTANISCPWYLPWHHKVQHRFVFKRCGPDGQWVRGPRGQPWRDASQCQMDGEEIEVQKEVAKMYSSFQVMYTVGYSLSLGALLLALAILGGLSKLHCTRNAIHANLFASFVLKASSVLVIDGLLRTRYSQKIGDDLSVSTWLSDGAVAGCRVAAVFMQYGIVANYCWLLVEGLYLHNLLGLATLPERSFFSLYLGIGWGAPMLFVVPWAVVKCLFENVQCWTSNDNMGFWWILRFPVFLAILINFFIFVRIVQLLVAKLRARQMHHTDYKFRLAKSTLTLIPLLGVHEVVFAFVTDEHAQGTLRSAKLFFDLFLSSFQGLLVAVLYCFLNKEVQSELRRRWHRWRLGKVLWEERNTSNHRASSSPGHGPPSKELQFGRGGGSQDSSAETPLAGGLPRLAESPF

The substance “Aib^2, Aib^13, Aib^29, Cys^43(PEG20K), Cys^44 (PEG20K)-GIP (Y[Aib]EGTFTSDYSI[Aib]LDKIAQRAFVQWLIA[Aib]KGKKQEWKHQITQC(PEG 20 kDa)C(PEG 20 kDa)-NH2) [Example 3, GIP analog PEGylated at Cys 43 and 44 with 20 kDa mPEG maleimide]” yielded a Ki with hGlucR above 7.89 µM. In addition, the “free fatty acids (plasma)” value amounted to 0.94 mEq/L in assay [1] (10 nmol/Kg) and 1.01 mEq/L in assay [1] (30 nmol/Kg). Also, the “total cholesterol (plasma)” value in assay [1] (10 nmol/Kg) amounted to 91 mg/dL; in assay [1] (30 nmol/Kg) it was 94 mg/dL. The “triglycerides (plasma)” value turned out to be 262.1 mg/dL in assay [1] (10 nmol/Kg) and 233.5 mg/dL in assay [1] (30 nmol/Kg). Besides, the fat mass reduced worked out at 1.3% in assay [1] (10 nmol/Kg over 16 days) and 2.3% in assay [1] (30 nmol/Kg over 16 days). Also, the lean mass increased in assay [1] (10 nmol/Kg over 16 days) stood at 0.6%; in assay [1] (30 nmol/Kg over 16 days), 1.3%. For the same substance, in assay [1] (over 16 days), the “changes in body weight and body composition compared to vehicle-treated DIO rats” value is “increasing the percentage of lean mass and decreasing the percentage of fat mass”. The “amount of free fatty acids” value in assay [1] (versus vehicle) is “increased”. In addition, in assay [1] (versus vehicle), the “amounts of plasma lipids, including triglycerides and total cholesterol” value is “lowered”. Besides, the “insulin AUC and glucose AUC compared to vehicle-treated rats” value in the assay with Normal male Wistar rats was “increased insulin AUC and decreased glucose AUC”. The “glucose AUC” value with Normal male Wistar rats (50 μg/Kg) worked out at 6780 mg·min/dL; in the assay with Normal male Wistar rats (200 μg/Kg), 7020 mg·min/dL. Also, the “insulin AUC” value in the assay with Normal male Wistar rats (50 μg/Kg 16 hours before test) was found to be 137 ng·min/mL; with Normal male Wistar rats (200 μg/Kg 16 hours before test), 183 ng·min/mL. In assay [2] (14-day DIO mouse studies, summary of Tables 6a and 6b), the “cumulative food intake and body weight compared to vehicle-treated mice” value was “decreased”. Further, the “Fat mass loss (g fat weight change for 14 days)” value in assay [2] (Table 6a, 30 nmol/Kg) was -4.3 ± 0.3 g; in assay [2] (Table 6a, 100 nmol/Kg), -5.6 ± 0.2 g. For the same substance, the “Total food intake (g total for 14 days)” value in assay [2] (Table 6a, 30 nmol/Kg) was found to be 26.5 ± 1.5 g; in assay [2] (Table 6a, 100 nmol/Kg) it was 23.4 ± 0.7 g. The “Overall weight loss (g weight change for 14 days)” value in assay [2] (Table 6a, 30 nmol/Kg sc every 3 days) was -5.5 ± 0.4 g; in assay [2] (Table 6a, 100 nmol/Kg sc every 3 days), -7.0 ± 0.3 g. Further, the “glucose excursion following an oral glucose load” value with DIO mice (DIO mice, summary of Tables 7a and 7b) is given as “significantly reduced”. Moreover, the “Glucose AUC, MEAN” value came to 10293 mg·min/dL in the assay on DIO mice (Table 7a, 30 nmol/Kg) and 10892 mg·min/dL in the assay on DIO mice (Table 7a, 100 nmol/Kg).

Consider “Aib^2, Aib^13, Nal^22, Aib^29, Cys^43(PEG20K), Cys^44 (PEG20K)-GIP [Example 5] (Y[Aib]EGTFTSDYSI[Aib]LDKIAQRA[1Nal]VQWLIA[Aib]KGKKQEWKHQITQCC-NH2; not fully specified (residues 43, 44); cysteine pairing not given here) [Nal22 GIP analog PEGylated at Cys 43 and 44 with 20 kDa mPEG iodoacetamide]”, for which the “glucose AUC” value in the assay on Normal male Wistar rats (50 μg/Kg) is 7202 mg·min/dL; in the assay with Normal male Wistar rats (200 μg/Kg), 7351 mg·min/dL. Besides, the “insulin AUC” value in the assay on Normal male Wistar rats (50 μg/Kg 16 hours before test) turned out to be 133 ng·min/mL; in the assay on Normal male Wistar rats (200 μg/Kg 16 hours before test), 124 ng·min/mL. Also, the “Fat mass loss (g fat weight change for 14 days)” value in assay [2] (Table 6b, 10 nmol/Kg) was -2.4 ± 0.3 g; in assay [2] (Table 6b, 30 nmol/Kg) it was -3.6 ± 0.4 g. Further, the “Overall weight loss (g weight change for 14 days)” value in assay [2] (Table 6b, 10 nmol/Kg) was -3.2 ± 0.3 g; in assay [2] (Table 6b, 30 nmol/Kg) it was -5.0 ± 0.4 g. Besides, the “Total food intake (g total for 14 days)” value is reported as 31.0 ± 1.0 g in assay [2] (Table 6b, 10 nmol/Kg) and 26.7 ± 0.7 g in assay [2] (Table 6b, 30 nmol/Kg). Moreover, the “Glucose AUC, MEAN” value in the assay with DIO mice (Table 7b, 10 nmol/Kg) amounted to 14332 mg·min/dL; with DIO mice (Table 7b, 30 nmol/Kg), 12474 mg·min/dL.
